The text below walks through data of patent US20240336567A1, “PESTICIDAL AND HERBICIDAL COMPOUNDS AND METHODS OF USE THEREOF” (AG Plenus Ltd, priority 2021, published 2024).

For assay [1], the system named is Arabidopsis thaliana. Briefly: HTPS - Dicot - Pre-emergence. It counts as in vivo. Conditions: N/A: not active; for Emax: read-out: HTPS - Dicot - Pre Max effect. Here is the method:
(§1) Arabidopsis thaliana seeds were sown in 96 well plates filled with irrigated Sweet sand (10%>clay) that is washed from salts and minerals using tap water. 5-10 seeds were sown in the center of each well. 7-8 days post sowing, at 2 true leaves stage, thinning out was performed to ensure that compound application is done on a single plant per well. The plates were placed in a controlled greenhouse in a random order inside a bath which allows flooding irrigation with tap water supplemented with a fertilizer. Applied compounds were dissolved into a final solution of 50% acetone, 49.9% DDW, 0.1% tween-20. A 96 well plate was used as a stock plate for preparing application solutions for 8 repeats. Each row contained different concentrations per chemical. Maximal concentration for application was 1.5 Kg/Ha and dilution factor is 2.5. Chemical application was performed one day after thinning out in a chemical hood. 5 μL applied on first two true leaves in each well using 12 channel pipettes. Data collection: RGB (red, green, blue) data for green area per well was documented using camera. Data is collected at a few time points during the experiment: one day after thinning and before chemical application, two-, six- or nine-days post application. During the last two documentations, visual phenotyping was performed. Data analysis: Given RGB results and visual phenotype scores, a student t-test conducted to compare between treatment and control performance for continuous data (RGB) and Fisher exact test to analyze the non-continuous data (phenotypic scores). Dose-Response curves are generated for each treatment to infer ED50 and max. inhibition parameters, using treatment's log concentration range as the […] variable and normalized green area. These experiments are conducted similarly except that either Arabidopsis thaliana or Eragrostis teff seeds were sowed (5-10 or 5-7, respectively), plant thinning out was not performed, compound dissolved into a final solution of 50% acetone, 49.9% DDW, compound application was done at 30 μL volume per well directly on sowed soil before plant emergence and data was collected 10 or 7 days after chemical application on dicot or monocot plants, respectively. Plate imaging performed at 11 and 18 DAA. RGB data for green area per well was documented and used to extract % inhibition. Dose-Response curves were built for each treatment to infer ED50, ED75 and ED90 parameters, using treatment's log concentration range as the independent variable and normalized green area as the dependent variable. Treatments were compared to controls performance given RGB results and using student's t-test (p-val≤0.05).

The test system of assay [2] is SETVI. Briefly: In-planta LTP pre-emergence, visual phenotype. It counts as in vivo, Setaria viridis. Conditions: monocot; for pest or weed control at 2000 g/ha: Setaria viridis, 432 h. The method, then: (§2) A basic panel of 8 weed species (Table 3) were sowed in 4×4×7 cm plastic pots containing inert sand (Sweet sand), intensively washed using osmosis water. Each specie was sowed in a separate pot. In each pot 10-15 seeds were sowed according to the specie viability. Sowing was performed one day before application. The plants were grown for 21 days in a controlled greenhouse (26±2° C. day 20±2° C. night). Hood irrigation (tap water+Shefer 5:3:8 8 mM) was given at a 50% water content by weight. Compounds were soluble in water (DDW), and commercial herbicide control was soluble in formulation B (Table 4). Application was conducted with an industrial sprayer (TeeJet 6502E nozzle) at a rate of 2 kg/ha and spray volume of […]. Pre-emergence advanced dose response experiment application was conducted at six rates between 1-0.0312 kg/ha and spray volume of […]. Percentage of emergence was evaluated at 15 DAA. Visual phenotyping was recorded using a scale of 0-6 (0: no visible effect, 6: maximum effect) at 18 DAA. All experiments included an untreated control, a solvent control and a positive control (commercial herbicide A.I.). Statistical analysis for visual phenotyping determined by a median value of ≥3.5 and Fisher test (pval≤0.05). Statistical analysis for plant emergence determined by % emergence ≥50 and T test (pval≤0.05), as well as Wilcox test (pval≤0.05).

The subject of assay [3] is POAAN. The experiment in a line: In-planta LTP pre-emergence, visual phenotype. The format is in vivo, Poa annua. Conditions: monocot; for pest or weed control at 2000 g/ha: Poa annua, 432 h, read-out: IG Inhibited growth (% effect). Here is the method: as §2
In assay [4] the test system is AMAPA. The experiment in a line: In-planta LTP pre-emergence, visual phenotype. The format is in vivo, Amaranthus palmeri. The conditions noted are these: Amaranthus palmeri, 432 h, dicot, read-out: IG Inhibited growth (% effect). Here is the method:
as §2

The nature of assay [5]: in vitro thermal shift (binding of compound to the target). Conditions: thermal shift caused by binding of the compound to the (unnamed) target.
For assay [6], the system named is Eragrostis teff. Briefly: HTPS - Monocot - Pre-emergence. The format is in vivo. Conditions: N/A: not active; for Emax: read-out: HTPS - Monocot - Pre Max effect. Here is the method: as §1
Assay [7] deals with Arabidopsis thaliana. The experiment in a line: HTPS (high throughput on soil) - Dicot - Post-emergence. Conditions: N/A: not active; for Emax: read-out: HTPS - Dicot - Post Max effect; for HTPS - Dicot - Post ED50: from normalized green area. The format is in vivo. Here is the method: as §1, with “area.” for “area. These experiments are conducted similarly except that either Arabidopsis thaliana or Eragrostis teff seeds were sowed (5-10 or 5-7, respectively), plant thinning out was not performed, compound dissolved into a final solution of 50% acetone, 49.9% DDW, compound application was done at 30 μL volume per well directly on sowed soil before plant emergence and data was collected 10 or 7 days after chemical application on dicot or monocot plants, respectively.”

Assay [8] relates to AMAPA. Briefly: In-planta LTP post-emergence, visual phenotype. The format is in vivo, Amaranthus palmeri. The conditions noted are these: dicot. The method, then:
A basic panel of eight weed species (Table 3) sowed in 4×4×7 cm plastic pots containing a garden mix (klasmann). Each specie was sowed in a separate pot. In each pot, 10-15 seeds were sowed according to the specie viability. Timing of application determined at a 1-2 true leaf stage. The plants grew for 30 days in a controlled greenhouse (26±2° C. day, 20±2° C. night). Hood irrigation (tap water+Shefer 5:3:8 8 mM) was given at a 50% water content by weight. Two days before application, the tested plants thinned down to three plants per pot. Compounds were soluble in water (DDW), and commercial herbicide control was soluble in formulation B (Table 4). Before application, 1% (v/v) crop oil and 0.02% (v/v) surfactant (Tergitol™ 15-5-7) were added to the solution. Application was conducted with an industrial sprayer (TeeJet 6502E nozzle) at a rate of 2 kg/ha and spray volume of […]. Plants were evaluated at 3 time points (4, 8, 12 days after application (DAA)). At each time point, visual phenotyping was recorded using a scale of 0-6 (0: no visible effect, 6: maximum effect). At 12 DAA, plants foliage was harvested, dried and weighed for dry weight analysis.
Post-emergence advanced dose response experiment included 4 species: SETVI, ECHCO, AMAPA, ABUTH (Tables 3, 5). Application was conducted at six rates between 0.6-0.0187 kg/ha and spray volume of […]. Plants were evaluated at 4 time points (6, 12, 18 and 26 DAA). At each time point, visual phenotyping was recorded using a scale of 0-6 (0: no visible effect, 6: maximum effect). At 26 DAA, plants foliage was harvested, dried and weighed for dry weight analysis.
Post-emergence advanced wide panel experiment included 24 weed species (Table 5). Application was conducted at 2 rates of 2 kg/ha and 0.25 kg/ha and spray volume of […]. Visual phenotyping was recorded at 4, 11, 17 and 20 DAA using a scale of 0-6 (0: no visible effect, 6: maximum effect). At 21 DAA, plants foliage was harvested, dried, and weighed for dry weight analysis. All experiments included an untreated control, a solvent control, and a positive control (commercial herbicide A.I.). Statistical analysis for visual phenotyping determined by a median value of ≥3.5 and Fisher test (pval≤0.05). Statistical analysis for dry weight determined by % inhibition ≥50 and T test (pval≤0.05), as well as Wilcox test (pval≤0.05).

Assay [9] relates to MATCA. The experiment in a line: In-planta LTP pre-emergence, visual phenotype. It counts as in vivo, Matricaria chamomilla. The conditions noted are these: dicot. The method, then: as §2
In assay [10] the test system is ALOMY. The experiment in a line: In-planta LTP pre-emergence, visual phenotype. It counts as in vivo, Alopecurus myosuroides. Conditions: monocot. Here is the method: as §2
[11] abbreviates: read-out: DE Disturbed emergence (% effect).
Where [12] appears, read: read-out: IG Inhibited growth (% effect).

Where two headings read alike, the source gives them in different places.

As to `CC(CN)Oc1cccc(C(=O)O)c1` (stereo not drawn) [Compound 102], the “HTPS - Dicot - Pre ED50” value in assay [1] came out at 127 g/ha. The Emax came to 100% in assay [1], 62% in assay [6] and 92% in assay [7]. The pest or weed control at 2000 g/ha was 100% in [2] (setting [11]), 100% in [2] (setting [12]), 60% in [3] and 60% in [4]. Moreover, in [5], the “in vitro Thermal Shift” value is 13 °C. The “HTPS - Monocot - Pre ED50” value in [6] is 650 g/ha. The “HTPS - Dicot - Post ED50” value in [7] came out at 127 g/ha.

Regarding `CC(N)COc1ccc(F)c(C(=O)O)c1` (stereo not drawn) [Compound 108], the “HTPS - Dicot - Pre ED50” value in [1] was determined as 31 g/ha. In addition, the Emax in [1] was 100%; in [6], 80%; in [7], 100%. The pest or weed control at 2000 g/ha in [2] (setting [11]) came to 100%; in [2] (setting [12]), 100%; in [3], 80%; in [4], 60%. Further, in [3], the “DE Disturbed emergence (% effect)” value is listed as “DE (80) %”. Besides, in assay [5], the “in vitro Thermal Shift” value amounted to 16 °C. The “HTPS - Monocot - Pre ED50” value in [6] was found to be 290 g/ha. Besides, the “HTPS - Dicot - Post ED50” value in [7] is on record as 31 g/ha.

With `CC(N)COc1cc(Cl)cc(C(=O)O)c1` (stereo not drawn) [Compound 109], the pest or weed control at 2000 g/ha in [2] (setting [11]) is 100%; in [3] it was 100%; in [4], 60%. In assay [3], the “DE Disturbed emergence (% effect)” value is “DE (100), %”. The “BL Bleaching (% effect)” value in assay [8] is “BL (40) %”. Further, the “in vitro Thermal Shift” value in [5] was 14 °C. Also, the “HTPS - Monocot - Pre ED50” value in [6] came to 681 g/ha. For the same compound, in assay [6], the Emax worked out at 80%.

In the case of `COC(=O)c1cccc(OCC(C)N)c1` (stereo not drawn) [Compound 110], in assay [1], the “HTPS - Dicot - Pre ED50” value amounted to 80 g/ha and the Emax was 100%. Further, in assay [2] (setting [12]), the pest or weed control at 2000 g/ha is 80%. Besides, the “in vitro Thermal Shift” value in [5] is 4 °C. Besides, in assay [7], the Emax is 100% and the “HTPS - Dicot - Post ED50” value is 38 g/ha.

In the case of `CC(N)COc1cncc(C(=O)O)n1` (stereo not drawn) [Compound 148], the Emax turned out to be 28% in assay [1], 100% in assay [6] and 17% in assay [7]. For the same compound, the results for the pest or weed control at 2000 g/ha in assay [2] (setting [11]), in assay [2] (setting [12]) and in assay [3] were 100%, 100% and 40%, respectively. Moreover, the “DRD Disturbed root development (% effect)” value is reported as “DRD^7 (100), %” in assay [2]; “DRD (40) %” in assay [3]; “DRD (60) %” in [10]. Besides, the “DE Disturbed emergence (% effect)” value in assay [9] is given as “DE (40) %”. Also, in assay [5], the “in vitro Thermal Shift” value came to 12 °C.
